This test concerns A/Udorn/72 (H3N2) virus. In words: Plaque assay in MDCK cells: EC50 by reduction of plaque number. The conditions noted are these: MDCK. Format: cell-based, influenza virus.

Turning to `COc1cc(-c2ccc(/C=C3\SC(=S)N(C4C5CC6CC(C5)CC4C6)C3=O)o2)cc(OC)c1OC` (stereo not drawn) [Compound 1], the EC50 was less than 100 nM.
As to `COc1cc(-c2ccc(/C=C3\SC(=S)N(C4CC5CCC4C5)C3=O)o2)cc(OC)c1OC` (stereo not drawn) [Compound 2], the EC50 was less than 100 nM.
In turn, `O=C(O)c1ccc(-c2ccc(/C=C3\SC(=S)N(C4C5CC6CC(C5)CC4C6)C3=O)o2)cc1` (stereo not drawn) [Compound 3] returned an EC50 of less than 100 nM.
The result for `O=C(O)c1ccc(-c2ccc(/C=C3\SC(=S)N(C4CC5CCC4C5)C3=O)o2)cc1` (stereo not drawn) [Compound 4] reads less than 100 nM; that for `O=C1/C(=C/c2ccc(-c3cc(O)cc(O)c3)o2)SC(=S)N1C1C2CC3CC(C2)CC1C3` (stereo not drawn) [Compound 5], less than 100 nM; that for `COc1cc(-c2ccc(/C=C3\SC(=S)N(C4C5CC6CC(C5)CC4C6)C3=O)o2)cc(OC)c1O` (stereo not drawn) [Compound 7], less than 100 nM.
The result for `COc1ccc(-c2ccc(/C=C3\SC(=S)N(C4CC5CCC4C5)C3=O)o2)cc1` (stereo not drawn) [Compound 8] reads less than 100 nM; that for `COc1ccc(-c2ccc(/C=C3\SC(=S)N(C4C5CC6CC(C5)CC4C6)C3=O)o2)cc1` (stereo not drawn) [Compound 9], less than 100 nM.
Turning to `COc1ccc(-c2ccc(/C=C3\SC(=S)N(C4CC5CCC4C5)C3=O)o2)cc1O` (stereo not drawn) [Compound 10], the EC50 was less than 100 nM.
The result for `Nc1ccc(-c2ccc(/C=C3\SC(=S)N(C4CC5CCC4C5)C3=O)o2)cc1` (stereo not drawn) [Compound 11] reads less than 100 nM; that for `Nc1ccc(-c2ccc(/C=C3\SC(=S)N(C4C5CC6CC(C5)CC4C6)C3=O)o2)cc1` (stereo not drawn) [Compound 12], less than 100 nM.
Compound `COC(=O)c1cc(-c2ccc(/C=C3\SC(=S)N(C4C5CC6CC(C5)CC4C6)C3=O)o2)ccc1OC` (stereo not drawn) [Compound 13] gave an EC50 of less than 100 nM.
The result for `COC(=O)c1cc(-c2ccc(/C=C3\SC(=S)N(C4CC5CCC4C5)C3=O)o2)ccc1OC` (stereo not drawn) [Compound 14] reads less than 100 nM; that for `O=C1/C(=C/c2ccc(-c3ccc(O)cc3)o2)SC(=S)N1C1C2CC3CC(C2)CC1C3` (stereo not drawn) [Compound 15], less than 100 nM.
The result for `COc1cc(O)cc(-c2ccc(/C=C3\SC(=S)N(C4C5CC6CC(C5)CC4C6)C3=O)o2)c1` (stereo not drawn) [Compound 18] reads less than 100 nM; that for `COc1cc(-c2ccc(/C=C3\SC(=S)N(C4CC5CCC4C5)C3=O)o2)ccc1O` (stereo not drawn) [Compound 24], less than 100 nM.
The result for `COCOc1cc(-c2ccc(/C=C3\SC(=S)N(C4C5CC6CC(C5)CC4C6)C3=O)o2)cc(OC)c1OC` (stereo not drawn) [Compound 25] reads less than 100 nM.
In turn, `COCOc1cc(-c2ccc(/C=C3\SC(=S)N(C4CC5CCC4C5)C3=O)o2)cc(OC)c1OCOC` (stereo not drawn) [Compound 26] gave an EC50 of less than 100 nM.
The result for `COCOc1cc(-c2ccc(/C=C3\SC(=S)N(C4CC5CCC4C5)C3=O)o2)cc(OC)c1OC` (stereo not drawn) [Compound 27] reads less than 100 nM; that for `COc1ccc(-c2ccc(/C=C3\SC(=S)N(C4C5CC6CC(C5)CC4C6)C3=O)o2)cc1C(=O)O` (stereo not drawn) [Compound 34], less than 100 nM.
The result for `COc1ccc(-c2ccc(/C=C3\SC(=S)N(C4CC5CCC4C5)C3=O)o2)cc1OCC(=O)O` (stereo not drawn) [Compound 35] reads less than 100 nM.
Turning to `COc1ccc(-c2ccc(/C=C3\SC(=S)N(C4CC5CCC4C5)C3=O)o2)cc1C(=O)O` (stereo not drawn) [Compound 36], the EC50 is less than 100 nM.
The result for `COc1cc(OCC(=O)O)cc(-c2ccc(/C=C3\SC(=S)N(C4C5CC6CC(C5)CC4C6)C3=O)o2)c1` (stereo not drawn) [Compound 38] reads less than 100 nM; that for `COc1cc(OCC(=O)OC(C)(C)C)cc(-c2ccc(/C=C3\SC(=S)N(C4CC5CCC4C5)C3=O)o2)c1` (stereo not drawn) [Compound 39], less than 100 nM.
The result for `O=C1/C(=C/c2ccc(-c3ccc(Cl)cc3)o2)SC(=S)N1C1C2CC3CC(C2)CC1C3` (stereo not drawn) [Compound 43] reads less than 100 nM; that for `CCOC(=O)c1c(F)ccc(-c2ccc(/C=C3\SC(=S)N(C4CCCC4)C3=O)o2)c1F` [Compound 45], less than 100 nM; that for `CCOC(=O)c1c(F)ccc(-c2ccc(/C=C3\SC(=S)N(C4CCCCCCC4)C3=O)o2)c1F` [Compound 46], less than 100 nM.
The result for `O=C1/C(=C/c2ccc(-c3ccc(Cl)cc3)o2)SC(=S)N1C1CCCCC1` [Compound 47] reads less than 100 nM; that for `O=C1/C(=C/c2ccc(-c3ccc(Cl)cc3)o2)SC(=S)N1C1CCCC1` [Compound 48], less than 100 nM.
For `COc1cc(C)c(-c2ccc(/C=C3\SC(=S)N(C4CCCCCCC4)C3=O)o2)cc1C` [Compound 49], the EC50 was less than 100 nM.
Consider `CCOc1ccc(F)c(F)c1-c1ccc(/C=C2\SC(=S)N(C3CCCC3)C2=O)o1` [Compound 50], for which the EC50 is less than 100 nM.
For `COc1cc(C)c(-c2ccc(/C=C3\SC(=S)N(C4CCCC4)C3=O)o2)cc1C` [Compound 51], the EC50 was less than 100 nM.
The result for `COc1ccc(-c2ccc(/C=C3\SC(=S)N(C4CCCCC4)C3=O)o2)c(F)c1F` [Compound 52] reads less than 100 nM.
The result for `COc1cc(OC)cc(-c2ccc(/C=C3\SC(=S)N(C4CC5CCC4C5)C3=O)[nH]2)c1` (stereo not drawn) [Compound 58] reads less than 100 nM.
The result for `COc1cc(OC)cc(-c2ccc(/C=C3\SC(=S)N(C4C5CC6CC(C5)CC4C6)C3=O)[nH]2)c1` (stereo not drawn) [Compound 59] reads less than 100 nM; that for `O=C1/C(=C/c2cn(-c3ccc([N+](=O)[O-])cc3)cn2)SC(=S)N1C1CCCCCCC1` [Compound 62], 250 to 1000 nM; that for `O=C1/C(=C/c2cn(-c3ccc([N+](=O)[O-])cc3)cn2)SC(=S)N1C1CCCCCC1` [Compound 63], 250 to 1000 nM.
Consider `O=C1/C(=C/c2cn(-c3ccc([N+](=O)[O-])cc3)cn2)SC(=S)N1C1CCCCCCCCCCC1` [Compound 64], for which the EC50 is less than 100 nM.
The result for `O=C1/C(=C/c2ncc(-c3ccccc3)o2)SC(=S)N1C1CCCCCC1` [Compound 65] reads less than 100 nM; that for `O=C1/C(=C/c2ncc(-c3ccccc3)o2)SC(=S)N1C1CCCCCCC1` [Compound 66], less than 100 nM; that for `COc1ccc2oc(=O)c(-c3ccc(/C=C4\SC(=S)N(C5CC6CCC5C6)C4=O)o3)c(O)c2c1` (stereo not drawn) [Compound 69], 100 to 250 nM.
The result for `COc1ccc2oc(=O)c(-c3ccc(/C=C4\SC(=S)N(C5C6CC7CC(C6)CC5C7)C4=O)o3)c(O)c2c1` (stereo not drawn) [Compound 70] reads 100 to 250 nM.
The result for `COc1ccc2c(O)c(-c3ccc(/C=C4\SC(=S)N(C5CC6CCC5C6)C4=O)o3)c(=O)oc2c1OC` (stereo not drawn) [Compound 71] reads 100 to 250 nM; that for `COc1ccc2c(O)c(-c3ccc(/C=C4\SC(=S)N(C5C6CC7CC(C6)CC5C7)C4=O)o3)c(=O)oc2c1OC` (stereo not drawn) [Compound 72], 100 to 250 nM.
On to `COc1ccc2c(O)c(-c3ccc(/C=C4\SC(=S)N(C5CC6CCC5C6)C4=O)o3)c(=O)oc2c1` (stereo not drawn) [Compound 73], for which the EC50 was 100 to 250 nM.
The result for `COc1ccc2c(O)c(-c3ccc(/C=C4\SC(=S)N(C5C6CC7CC(C6)CC5C7)C4=O)o3)c(=O)oc2c1` (stereo not drawn) [Compound 74] reads 100 to 250 nM; that for `COCOc1cc(=O)oc2ccc(-c3ccc(/C=C4\SC(=S)N(C5C6CC7CC(C6)CC5C7)C4=O)o3)cc12` (stereo not drawn) [Compound 75], 250 to 1000 nM; that for `COCOc1cc(=O)oc2ccc(-c3ccc(/C=C4\SC(=S)N(C5CC6CCC5C6)C4=O)o3)cc12` (stereo not drawn) [Compound 76], 250 to 1000 nM.
The result for `COc1ccc(-c2ccc(/C=C3\SC(=S)N(C4CC5CCC4C5)C3=O)o2)cc1OCC(=O)N[C@@H](Cc1ccc(O)cc1)C(=O)O` (stereo partly drawn) [Compound 77] reads 100 to 250 nM; that for `COc1ccc(-c2ccc(/C=C3\SC(=S)N(C4CC5CCC4C5)C3=O)o2)cc1OCC(=O)N[C@@H](CC(C)C)C(=O)O` (stereo partly drawn) [Compound 78], less than 100 nM.
The result for `COc1ccc(-c2ccc(/C=C3\SC(=S)N(C4CC5CCC4C5)C3=O)o2)cc1OCC(=O)N[C@@H](Cc1ccccc1)C(=O)O` (stereo partly drawn) [Compound 79] reads less than 100 nM.
`COc1ccc(-c2ccc(/C=C3\SC(=S)N(C4CC5CCC4C5)C3=O)o2)cc1OCC(=O)N1CCC[C@H]1C(=O)O` (stereo partly drawn) [Compound 80]: the EC50 is less than 100 nM.
In turn, `COc1ccc(-c2ccc(/C=C3\SC(=S)N(C4CC5CCC4C5)C3=O)o2)cc1OCC(=O)N[C@@H](CCC(=O)OCc1ccccc1)C(=O)O` (stereo partly drawn) [Compound 81] came in with an EC50 of less than 100 nM.
The result for `COc1ccc(-c2ccc(/C=C3\SC(=S)N(C4CC5CCC4C5)C3=O)o2)cc1OCC(=O)N[C@@H](Cc1cnc[nH]1)C(=O)O` (stereo partly drawn) [Compound 82] reads less than 100 nM.
`COc1ccc(-c2ccc(/C=C3\SC(=S)N(C4CC5CCC4C5)C3=O)o2)cc1C(=O)N[C@@H](Cc1ccccc1)C(=O)O` (stereo partly drawn) [Compound 85] showed an EC50 of less than 100 nM.
`COc1ccc(-c2ccc(/C=C3\SC(=S)N(C4CC5CCC4C5)C3=O)o2)cc1C(=O)N[C@@H](CC(C)C)C(=O)O` (stereo partly drawn) [Compound 87] had an EC50 of less than 100 nM.
`COc1ccc(-c2ccc(/C=C3\SC(=S)N(C4CC5CCC4C5)C3=O)o2)cc1C(=O)N[C@@H](Cc1cnc[nH]1)C(=O)O` (stereo partly drawn) [Compound 88]: the EC50 is less than 100 nM.
The result for `COc1ccc(-c2ccc(/C=C3\SC(=S)N(C4CC5CCC4C5)C3=O)o2)cc1C(=O)N1CCC[C@H]1C(=O)O` (stereo partly drawn) [Compound 89] reads less than 100 nM; that for `COC(=O)C[C@H](NC(=O)c1cc(-c2ccc(/C=C3\SC(=S)N(C4CC5CCC4C5)C3=O)o2)ccc1OC)C(=O)O` (stereo partly drawn) [Compound 90], 100 to 250 nM.
The result for `CCOC(=O)[C@@H]1CCCCN1C(=O)c1cc(-c2ccc(/C=C3\SC(=S)N(C4CC5CCC4C5)C3=O)o2)ccc1OC` (stereo partly drawn) [Compound 91] reads less than 100 nM; that for `O=C1/C(=C/c2oc(-c3ccccc3)cc2CO)SC(=S)N1C1CC2CCC1C2` (stereo not drawn) [Compound 93], less than 100 nM.
The result for `COc1cc(OC)cc(-c2cc(CCCO)c(/C=C3\SC(=S)N(C4CC5CCC4C5)C3=O)o2)c1` (stereo not drawn) [Compound 96] reads less than 100 nM; that for `COc1cc(OC)cc(-c2cc(CCCOC(C)=O)c(/C=C3\SC(=S)N(C4CC5CCC4C5)C3=O)o2)c1` (stereo not drawn) [Compound 97], less than 100 nM.
For `COc1cc(OC)cc(-c2cc(CCCOC(C)=O)c(/C=C3\SC(=S)N(C4C5CC6CC(C5)CC4C6)C3=O)o2)c1` (stereo not drawn) [Compound 98], the EC50 was less than 100 nM.
The result for `O=C1/C(=C/c2oc(-c3ccc(Cl)cc3)cc2CCCO)SC(=S)N1C1C2CC3CC(C2)CC1C3` (stereo not drawn) [Compound 100] reads less than 100 nM; that for `O=C1/C(=C/c2oc(-c3ccc(F)cc3)cc2CCCCCO)SC(=S)N1C1CC2CCC1C2` (stereo not drawn) [Compound 105], less than 100 nM.

For the origin of these results see patent publication US8933075B2, “Compounds useful as antiviral agents, compositions, and methods of use” (priority 2010, dated 2015).
